# From article PMC7489219 (Molecular Brain, 2020)
# Counter-ions that a name gives are not always drawn.
# System: T1, primary mouse cortical neurons
# T1 construct: primary cortical neurons, DIV 10
# Test: cells
# Set-up: Protection from NMDA-induced (30 uM, 10 min) neuronal death; Hoechst nuclear morphology by automated microscopy
# Conditions: Cortical neurone, 20 h, read-out: % inhibition, inhibition of NMDA-induced cell death (protection score), 30 min pre-treatment
# In short: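 On DIV 10, primary mouse cortical neurons were given compound at 10 μM for 30 min at 37 °C, then 30 μM NMDA for 10 min, washed, and kept 20 h with compound. Dead cells were scored by nuclear morphology, and % protection was derived from survival relative to vehicle + NMDA and untreated controls.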
row,SMILES,inhibition at 10 µM [%]
1,Oc1ccc(/C=C/c2cc(O)cc(O)c2)cc1 [Resveratrol],22.8
2,C[C@@H](O)[C@H]1C(=O)N2C(C(=O)O)=C(S[C@@H]3CN[C@H](CNS(N)(=O)=O)C3)[C@H](C)[C@H]12 [Doripenem Hydrate],-0.0213
3,NC(=O)c1cn(Cc2c(F)cccc2F)nn1 [Rufinamide (Banzel)],-3.11
4,CC(=O)O[C@]1(C(C)=O)CC[C@H]2[C@@H]3C=C(C)C4=CC(=O)CC[C@]4(C)[C@H]3CC[C@@]21C [Megestrol Acetate],-7.04
5,C[C@@H]1C/C=C/C=C/C=C/C=C/[C@H](O[C@@H]2O[C@H](C)[C@@H](O)[C@H](N)[C@@H]2O)C[C@@H]2O[C@](O)(C[C@@H](O)C[C@H]3O[C@@H]3/C=C/C(=O)O1)C[C@H](O)[C@H]2C(=O)O [Natamycin (Pimaricin)],-0.639
6,COc1cc(CCC(C)=O)ccc1O [Vanillylacetone],7.76
7,COc1ccc2cccc(CCNC(C)=O)c2c1 [Agomelatine],-12.7
8,CN1CC(=O)N2[C@H](c3ccc4c(c3)OCO4)c3[nH]c4ccccc4c3C[C@@H]2C1=O [Tadalafil (Cialis)],0.202
9,C=C1CC[C@@H]2[C@](C)(CO)[C@H](O)CC[C@@]2(C)[C@@H]1C/C=C1/C(=O)OC[C@H]1O [Andrographolide],-4.01
10,CC1COc2c(N3CCN(C)CC3)c(F)cc3c(=O)c(C(=O)O)cn1c23 (stereo not shown) [Ofloxacin (Floxin)],-0.567
11,CNS(=O)(=O)Cc1ccc2[nH]cc(CCN(C)C)c2c1 [Sumatriptan succinate],8.05
12,O=C(O)COCCN1CCN(C(c2ccccc2)c2ccc(Cl)cc2)CC1 (stereo not shown) [Cetirizine Dihydrochloride],-10.5
13,CO[C@H]1C[C@@H]2CC[C@@H](C)[C@@](O)(O2)C(=O)C(=O)N2CCCC[C@H]2C(=O)O[C@H]([C@H](C)C[C@@H]2CC[C@@H](O)[C@H](OC)C2)CC(=O)[C@H](C)/C=C(\C)[C@@H](O)[C@@H](OC)C(=O)[C@H](C)C[C@H](C)/C=C/C=C/C=C/1C [Rapamycin (Sirolimus)],-1.51
14,C[C@@H](CN1CC(=O)NC(=O)C1)N1CC(=O)NC(=O)C1 [Dexrazoxane Hydrochloride],-16.2
15,CCCc1nc(C)c2c(=O)nc(-c3cc(S(=O)(=O)N4CCN(CC)CC4)ccc3OCC)[nH]n12 [Vardenafil (Vivanza)],-5.64
16,NCC(=O)CCC(=O)O [5-Aminolevulinic acid hydrochloride],-1.27
17,Cc1cc(C(C)(C)C)c(O)c(C)c1CC1=NCCN1 [Oxymetazoline hydrochloride],-9.52
18,C[C@@H]1O[C@@H](Oc2c(-c3cc(O)c(O)c(O)c3)oc3cc(O)cc(O)c3c2=O)[C@H](O)[C@H](O)[C@H]1O [Myricitrin (Myricitrine)],-2.22
19,CCOC(=O)O[C@]1(C(=O)OCCl)CC[C@H]2[C@@H]3CCC4=CC(=O)C=C[C@]4(C)[C@H]3[C@@H](O)C[C@@]21C [Loteprednol Etabonate],30.7
20,CC(c1cc2ccccc2s1)N(O)C(N)=O (stereo not shown) [Zileuton],-10.2
21,C[C@H]1C[C@H]2[C@@H]3CCC4=CC(=O)C=C[C@]4(C)[C@H]3C(=O)C[C@]2(C)[C@@]1(O)C(=O)CO [Betapar (Meprednisone)],11.6
22,COCCOC(=O)C1=C(C)NC(C)=C(C(=O)OC/C=C/c2ccccc2)C1c1cccc([N+](=O)[O-])c1 (stereo not shown) [Cilnidipine],-16
23,Nc1nc(=O)[nH]cc1F [Flucytosine (Ancobon)],3.84
24,CN(C)CC/C=C1/c2ccccc2Sc2ccc(Cl)cc21 [Chlorprothixene],-2.97
25,O=c1c2ccccc2oc2ccccc12 [Xanthone (Genicide)],7.85
26,CCCC(=O)O [Sodium butyrate],0.412
27,Cc1cc(O)c2c(c1)C(=O)c1cccc(O)c1C2=O [Chrysophanic acid (Chrysophanol)],8.58
28,COc1cc(/C=C/C(=O)O)ccc1O [Fumalic acid (Ferulic acid)],-0.686
